Measurements from ChEMBL document CHEMBL4699592, “Nature-Inspired (di)Azine-Bridged Bisindole Alkaloids with Potent Antibacterial In Vitro and In Vivo Efficacy against Methicillin-Resistant Staphylococcus aureus” (J Med Chem, 2020).
Converted amounts (≈) assume the structure as drawn. The source made the active and inactive calls. The calls are words filed in the database; no cut-off is given here.

Assays:
[1] = tested on: Acinetobacter baumannii; test: Antibacterial activity against Acinetobacter baumannii ATCC BAA-1605 at 0.78 to 100 uM after 24 hrs by broth microdilution method; format: functional, organism-based; conditions: dose microM 0.78-100, time 24.0 hrs
[2] = tested on: Staphylococcus aureus; test: Antibacterial activity against […] Staphylococcus aureus ATCC 700699 after 24 hrs by broth microdilution method; format: functional
[3] = tested on: Mycobacterium tuberculosis; test: Antibacterial activity against Mycobacterium tuberculosis H37Rv at 0.78 to 100 uM after 5 days by resazurin dye based fluorescence assay; format: functional, organism-based; conditions: dose microM 0.78-100, time 5.0 day
[4] = tested on: HEK293; test: Cytotoxicity against HEK293 cells assessed as reduction in cell viability at >12.5 uM measured after 48 hrs by resazurin dye based fluorescence assay; conditions: human, hek293, 48 h
[5] = Cytotoxicity against human CLS-54 cells assessed as reduction in cell viability at >12.5 uM measured after 48 hrs by resazurin dye based fluorescence assay; conditions: cls-54, 48 h
[6] = tested on: Staphylococcus aureus; test: Antibacterial activity against methicillin susceptible Staphylococcus aureus ATCC 25923 at 0.78 to 100 uM after 24 hrs by broth microdilution method; format: functional, organism-based; conditions: dose microM 0.78-100, time 24.0 hrs
[7] = tested on: Enterococcus faecium; test: Antibacterial activity against vancomycin-resistant Enterococcus faecium ATCC 35667 at 0.78 to 100 uM after 24 hrs by broth microdilution method; format: functional, organism-based; conditions: dose microM 0.78-100, time 24.0 hrs
[8] = tested on: Staphylococcus aureus; test: Antibacterial activity against methicillin-resistant pyruvate kinase deficient Staphylococcus aureus USA300 LAC at 0.15 to 25 uM incubated for 24 hrs under low pyruvate containing medium by resazurin dye based fluorescence assay; format: functional, organism-based; conditions: dose microM 0.15-25, time 24.0 hrs
[9] = Selectivity index, ratio of IC50 for cytotoxicity against human MRC5 cells to MIC90 for antibacterial activity against […] Staphylococcus aureus ATCC 700699; format: toxicity, cell-based; conditions: read-out: Selectivity Index
[10] = tested on: Staphylococcus aureus; test: Antibacterial activity against methicillin-resistant Staphylococcus aureus USA300 LAC at 0.15 to 25 uM incubated for 24 hrs under low pyruvate containing medium by resazurin dye based fluorescence assay; format: functional, organism-based; conditions: dose microM 0.15-25, time 24.0 hrs
[11] = tested on: HepG2; test: Cytotoxicity against human HepG2 cells assessed as reduction in cell viability at >12.5 uM measured after 48 hrs by resazurin dye based fluorescence assay; conditions: hepg2, 48 h
[12] = tested on: Staphylococcus aureus; test: Antibacterial activity against methicillin-resistant Staphylococcus aureus USA300 LAC at 0.15 to 25 uM incubated for 24 hrs under low glucose medium by resazurin dye based fluorescence assay; format: functional, organism-based; conditions: dose microM 0.15-25, time 24.0 hrs
[13] = biological target: Pyruvate kinase PKM (Oryctolagus cuniculus) (UniProt P11974); test: Inhibition of rabbit muscle pyruvate kinase up to 12.5 uM using phosphoenolpyruvate as substrate measured for 5 mins by LDH-coupled assay; conditions: dose microM <=12.5, time 5.0 min
[14] = tested on: Enterococcus faecium; test: Antibacterial activity against vancomycin-resistant Enterococcus faecium ATCC 700221 at 0.78 to 100 uM after 24 hrs by broth microdilution method; format: functional, organism-based; conditions: dose microM 0.78-100, time 24.0 hrs
[15] = tested on: Enterococcus faecalis; test: Antibacterial activity against Enterococcus faecalis ATCC 29212 at 0.78 to 100 uM after 24 hrs by broth microdilution method; format: functional, organism-based; conditions: dose microM 0.78-100, time 24.0 hrs
[16] = tested on: THP-1; test: Cytotoxicity against human THP-1 cells assessed as reduction in cell viability at >=12.5 uM measured after 48 hrs by resazurin dye based fluorescence assay; conditions: thp-1, 48 h
[17] = Selectivity index, ratio of IC50 for cytotoxicity against human THP-1 cells to MIC90 for antibacterial activity against […] Staphylococcus aureus ATCC 700699; format: toxicity, cell-based; conditions: read-out: Selectivity Index
[18] = tested on: Staphylococcus aureus; test: Bactericidal activity against […] Staphylococcus aureus ATCC 700699 assessed as reduction in bacterial viability at 5 fold MIC incubated for 6 hrs by time kill assay relative to control; format: functional
[19] = tested on: Staphylococcus aureus; test: Bactericidal activity against […] Staphylococcus aureus ATCC 700699 assessed as colony forming units at 5 fold MIC measured after 24 hrs by time kill assay; format: functional
[20] = tested on: MRC5; test: Cytotoxicity against human MRC5 cells assessed as reduction in cell viability at >=12.5 uM measured after 48 hrs by resazurin dye based fluorescence assay; conditions: mrc5, 48 h
[21] = tested on: Staphylococcus aureus; test: Inhibition of Staphylococcus aureus ATCC 700699 N-terminal His6-tagged pyruvate kinase expressed in Escherichia coli NiCo21(DE3) at 12.5 uM using phosphoenolpyruvate as substrate measured for 5 mins by LDH-coupled assay
[22] = tested on: Enterococcus faecalis; test: Antibacterial activity against Enterococcus faecalis ATCC 51299 at 0.78 to 100 uM after 24 hrs by broth microdilution method; format: functional, organism-based; conditions: dose microM 0.78-100, time 24.0 hrs
[23] = Solubility of compound in pH 7.7 PBS buffer; format: physicochemical
[24] = tested on: Cell membrane; test: Induction of cell membrane permeabilization in GFP-expressing Staphylococcus aureus ATCC 700699 assessed as increase in cellular ATP leakage at 5 fold MIC measured after 0.5 hrs by Bactiter-glo assay; format: subcellular
[25] = tested on: Cell membrane; test: Induction of cell membrane permeabilization in methicillin resistant Staphylococcus aureus ATCC 700699 measured at 5 mins interval for 2 hrs by propidium iodide staining based fluorescence assay; format: subcellular
[26] = Stability of compound in pH 7.7 DMSO:PBS solution at 0.19 uM measured after 6 hrs; format: physicochemical; conditions: buffer, pH 7.7, 6 h
[27] = tested on: Staphylococcus aureus; test: Bactericidal activity against […] Staphylococcus aureus ATCC 700699 assessed as colony forming unit at 5 fold MIC incubated for 6 hrs followed by compound washout and subsequent compound addition by time kill assay; format: functional

Chain of Pyruvate kinase PKM (Oryctolagus cuniculus) (P11974 whole entry): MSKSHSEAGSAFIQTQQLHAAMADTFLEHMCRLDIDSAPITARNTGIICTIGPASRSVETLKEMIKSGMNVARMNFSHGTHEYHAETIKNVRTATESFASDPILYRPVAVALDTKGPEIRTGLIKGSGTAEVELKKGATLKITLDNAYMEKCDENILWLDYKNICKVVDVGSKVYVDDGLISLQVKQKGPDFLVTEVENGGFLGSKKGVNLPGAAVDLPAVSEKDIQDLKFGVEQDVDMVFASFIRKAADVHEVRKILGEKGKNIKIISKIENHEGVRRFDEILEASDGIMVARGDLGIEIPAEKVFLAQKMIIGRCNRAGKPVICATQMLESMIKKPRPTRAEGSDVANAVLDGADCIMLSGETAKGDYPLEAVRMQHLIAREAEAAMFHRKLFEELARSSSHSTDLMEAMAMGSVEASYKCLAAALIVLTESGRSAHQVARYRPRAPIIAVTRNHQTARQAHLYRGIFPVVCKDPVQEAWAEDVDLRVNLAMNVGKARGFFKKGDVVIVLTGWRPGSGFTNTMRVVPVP

Brc1ccc2c(-c3cnc(-c4c[nH]c5cc(Br)ccc45)cn3)c[nH]c2c1
Activity [1]: inactive
MIC90 [2]: > 100 µM
Activity [3]: inactive

Clc1ccc2[nH]cc(-c3ccnc(-c4c[nH]c5ccc(Cl)cc45)n3)c2c1
Activity [4]: Toxic
Activity [5]: Toxic
Activity [6]: Active
Activity [7]: Active
Activity [8]: Active
selectivity ratio [9]: 32
Activity [10]: Active
Activity [11]: Toxic
Activity [12]: Active
inhibition [13]: inactive
Activity [1]: Active
Activity [14]: Active
Activity [15]: Active
MIC90 [2]: 3.13 µM (≈ 1.19 µg/mL)
Activity [16]: Toxic
selectivity ratio [17]: 32
Activity [3]: Active
fold change (FC) [18]: 10000
Activity [19]: <10 CFU/ml
Activity [20]: Toxic
inhibition [21]: inactive
Activity [22]: Active

Fc1ccc2[nH]cc(-c3cnc(-c4c[nH]c5ccc(F)cc45)nc3)c2c1
Activity [1]: inactive
MIC90 [2]: 12.5 µM (≈ 4.33 µg/mL)
Activity [3]: inactive

COc1ccc2[nH]cc(-c3cnc(-c4c[nH]c5ccc(OC)cc45)cn3)c2c1
Activity [6]: inactive
Activity [7]: inactive
Activity [1]: inactive
Activity [14]: inactive
Activity [15]: inactive
MIC90 [2]: > 100 µM
Activity [3]: inactive
Activity [22]: inactive

Brc1ccc2[nH]cc(-c3cnc(-c4c[nH]c5ccc(Br)cc45)cn3)c2c1
Activity [8]: Active
solubility [23]: Insoluble
selectivity ratio [9]: 8
Activity [10]: Active
Activity [12]: Active
Activity [1]: inactive
MIC90 [2]: 1.56 µM (≈ 0.73 µg/mL)
Activity [16]: Toxic
selectivity ratio [17]: 8
Activity [3]: inactive
fold change (FC) [18]: 10000
Activity [20]: Toxic

Clc1ccc2[nH]cc(-c3cncc(-c4c[nH]c5ccc(Cl)cc45)n3)c2c1
solubility [23]: Insoluble
Activity [1]: inactive
MIC90 [2]: 0.39 µM (≈ 0.148 µg/mL)
Activity [3]: inactive

c1ccc2c(-c3ccc(-c4c[nH]c5ccccc45)nn3)c[nH]c2c1
Activity [1]: inactive
MIC90 [2]: > 100 µM
Activity [3]: inactive

CC(=O)NC[C@H]1CN(c2ccc(N3CCOCC3)c(F)c2)C(=O)O1
Activity [24]: inactive
Activity [25]: inactive

c1cc(-c2c[nH]c3ncccc23)nc(-c2c[nH]c3ncccc23)c1
Activity [1]: inactive
MIC90 [2]: > 100 µM
Activity [3]: inactive

Clc1ccc2[nH]cc(-c3cnc(-c4c[nH]c5ccc(Cl)cc45)cn3)c2c1
Stabilty [26]: Stable
solubility [23]: Insoluble
selectivity ratio [9]: 32
Activity [1]: inactive
MIC90 [2]: 0.39 µM (≈ 0.148 µg/mL)
Activity [16]: Toxic
selectivity ratio [17]: 32
Activity [3]: inactive
fold change (FC) [18]: 100
Activity [19]: 100 CFU/ml
Activity [20]: Toxic
Activity [27]: 100 CFU/ml

Oc1ccc2[nH]cc(-c3cnc(-c4c[nH]c5ccc(O)cc45)nc3)c2c1 [HYRTINADINE A]
Activity [6]: inactive
Activity [7]: inactive
Activity [1]: inactive
Activity [14]: inactive
Activity [15]: inactive
MIC90 [2]: > 100 µM
Activity [3]: inactive
Activity [22]: inactive
